Data on 10 compounds can be found in patent US10098830B2, “Oral care compositions” (BASF SE, priority 2014, dated 2018).

Read-outs that look alike come from different tables or passages of the source.

Data set [1] has as its system multispecies saliva derived biofilm. Kind of data set: Substantivity: multispecies saliva derived biofilm growth after 24 hr on pre-treated hydroxyl apatite surfaces. In kind it is cell-based, human saliva. The note with it: for % decrease in biofilm as compared to growth control (negative indicates increased biofilm): saliva biofilm, 24 hr, pre-treated surface. The method, then:
Method to evaluate the substantivity of polymers to hydroxyl apatite surfaces and the effects these polymers have on the growth of Streptococcus mutans and Saliva derived biofilms. For Multispecies Saliva Biofilms: Hydroxy apatite (HA) coated surfaces are pellicle treated with pooled human saliva 200 ul/per well of a 96 well clear plate for 30 minutes at 37° C. aerobically. […] The peg lids are transferred to a clear 96 well plate containing 200 ul of the designated treatments below in Jordan's with 5% sucrose. […] After 30 mins of treatment the two pegs are transferred to a 96 well plate containing 200 ul of water and it is rinsed for 10 min at 500 rpm. […] After incubation the peg lids are transferred to a rinse plate containing 200 ul of water for 5 minutes and then transferred to white 96 well plate containing 200 ul Bac-titer-Glo, this is shaken for 5 minutes and read for luminescence.

Data set [2] relates to S. mutans (ATCC #25175) biofilm. As to the kind of experiment: Substantivity: Streptococcus mutans biofilm growth after 24 hr on pre-treated hydroxyapatite surfaces. In kind it is cell-based. The note with it: pre-treated surface. As to the method:
Method to evaluate the substantivity of polymers to hydroxyl apatite surfaces and the effects these polymers have on the growth of Streptococcus mutans and Saliva derived biofilms. For S. mutans Biofilms: S. mutans (ATCC #25175) is inoculated into 10 mL BHI and incubated statically at 37° C. overnight. […] Hydroxy apatite coated peg lids are pellicle treated with sterile artificial saliva 200 ul/per well of a 96 well clear plate for 30 minutes at 37° C. aerobic. The peg lids are transferred to a clear 96 well plate containing 200 ul of the designated treatments below in Jordan's with 5% sucrose. […] After 30 mins of treatment the two pegs are transferred to a 96 well plate containing 200 ul of water and it is rinsed for 10 min at 500 rpm. […] After incubation the peg lids are transferred to a rinse plate containing 200 ul of water for 5 minutes and then transferred to white 96 well plate containing 200 ul Bac-titer-Glo, this is shaken for 5 minutes and read for luminescence. Results: Polymers are evaluated using the substantivity for biofilm prevention method indicated above for both S. mutans and multispecies saliva derived biofilms.

The test system of a further data set is 48 hour saliva biofilms. Kind of data set: Disruption of established 48 hour saliva biofilms. The note with it: for Disruption of 48 hour saliva biofilms after treatment for 5 minutes: Chelate control: 0.1% Trilon Ca. In kind it is cell-based, pooled human saliva. The method, then:
Method to screen combinations of actives, example polymers and chelates to identify potential synergies for biofilm disruption.
Polystyrene Pegs are pellicle treated with fresh pooled human saliva for 30 minutes at 37° C. aerobically. Saliva is inoculated into BHI broth at a final concentration of 10% saliva. 200 ul of inoculated or uninoculated media is added to each well. The pegs are added to the growth media and incubated anaerobically 37° C.
At 24 hr. the pegs are removed and transferred to a fresh plate containing 200 ul of sterile BHI. And incubated anaerobically for another 24 hr at 37 C.
After 48 hr of growth time, pegs containing the biofilms are transferred to a 96 well rinse plate containing 200 ul of or BHI. Following a 5 minute rinse at room temperature, the pegs are transferred to a treatment plate containing combinations of actives, chelate and polymers. This is followed a 5 minute treatment (shaking at 500 rpm). The treated pegs are transferred to a white 96 well plate containing 200 ul Bac-titer-Glo reagent—this is incubated at room temperature for 5 minutes (shaking) and read on a plate reader for luminescence.
Polymers are evaluated using the Biofilm disruption model as described above.
Example polymers (xylitol-EDTA polymer and xylitol-arginine-succinic acid polymer) are combined with example actives (epsilon-polylysine and chlorhexidine) and a chelator (Ca EDTA).

A further data set relates to S. mutans (ATCC #25175). As to the kind of experiment: Inhibition of bacterial acid production (Bromo Cresol Purple broth, OD 588 / OD 427). Type of data set: cell-based, Streptococcus mutans. As to the method: Method to observe the acid production of S. mutans in a medium containing a pH indicator and glucose. Observe how xylitol and the example polymers affect acid production. A culture of S. mutans (ATCC #25175) is grown statically overnight in 10 mL liquid broth (BHI) at 37° C. […] The no treatment control has 20 ul water added. To each experimental well 180 of the inoculated BCP broth is added. To the no inoculum control 20 ul water and 20 ul filter sterilized overnight culture broth are added. […] Both wavelengths are measured every hour for several hours but before evaporation became an issue. The plates are shaken for 10 seconds before reading.

For the next data set, the system named is porcine esterase. Kind of data set: Enzymatic degradation of xylitol polymer by esterase (pH change). Type of data set: in vitro ADME. As to the method:
The method for determining enzymatic breakdown of polymer is determined by Sigma Quality Control Test Procedure: Enzymatic Assay of Esterase. This assay however, exchanges Ethyl Butyrate solution with solution of test polymer. pH change is monitored over time as an indicator of esterase activity and polymer degradation.
Degradation of example polymers is conducted using porcine esterase. Esterase activity decreases the pH of the solution. The pH is monitored at the start and end of the assay (90 minutes).

In another data set the test system is S. mutans 25175 biofilm. As to the kind of experiment: Prevention of Streptococcus mutans biofilm development on hydroxy apatite pegs (Bac-titer-Glo). Type of data set: cell-based. The settings on record: 2% xylitol. As to the method: Prevention of Biofilm Development S. mutans Biofilms: S. mutans 25175 is inoculated into 10 mL BHI and incubated statically at 37° C. overnight. […] Hydroxy apatite coated peg lids are pellicle treated with sterile artificial saliva 200 ul/per well of a 96 well clear plate for 30 minutes at 37° C. aerobic. […] Test solutions are added to a desired final concentration and water is added to bring the final volume to 200 ul. […] Polymers are evaluated using the biofilm prevention method indicated above for both S. mutans and multispecies saliva derived biofilm.

Data set [3] deals with multispecies saliva biofilm. Kind of data set: Prevention of multispecies saliva biofilm development on hydroxy apatite pegs (Bac-titer-Glo). Type of data set: cell-based, pooled human saliva. The note with it: 2% xylitol. As to the method: Prevention of Biofilm Development Multispecies Saliva Biofilms: Hydroxy apatite (HA) coated surfaces of a 96 peg lid (Biosurface Technologies, Boseman, Mont.) are pellicle treated with pooled human saliva 200 μl/per well of a 96 well clear plate for 30 minutes at 37° C. aerobically. Into each well of the growth plate, clear 96 well plate, 160 μl inoculated Brain Heart Infusion (BHI) broth is added. Test solutions are added to a desired final concentration and water is added to bring the final volume to 200 μl. The hydroxyl apatite coated pegs are added to. […] Polymers are evaluated using the biofilm prevention method indicated above for both S. mutans and multispecies saliva derived biofilm.

Turning to `CCCCCCCCCCCCCCCC[n+]1ccccc1` [Cetylpyridinium chloride], the “% decrease in biofilm as compared to growth control (negative indicates increased biofilm)” value in data set [1] (% treatment 0.070%) turned out to be 98%; in data set [2] (% treatment 0.070%), 100%.
Turning to `[H]/N=C(\N/C(=N/[H])NCCCCCCNC(=N)NC(=N)Nc1ccc(Cl)cc1)Nc1ccc(Cl)cc1` [Chlorhexidine, chlorhexidine], in the data set with 48 hour saliva biofilms (0.06% Chlorhexidine), the “Disruption of 48 hour saliva biofilms after treatment for 5 minutes: Active control” value was −10^.
On to `O=C(O)CN(CCN(CC(=O)O)CC(=O)O)CC(=O)O` [EDTA, ethylenediaminetetraacetic acid], for which the “substantivity (retention of biofilm prevention activity after rinsing), in words” value in data set [1] (observations consistent for both S. mutans and saliva biofilms) is “also substantive”. Further, the “% decrease in biofilm as compared to growth control (negative indicates increased biofilm)” value in data set [1] (% treatment 0.083%) is recorded as 17%; in data set [1] (% treatment 0.165%) it was 25%; in data set [1] (% treatment 0.330%) it was 32%; in data set [1] (% treatment 0.660%), 60%; in data set [1] (% treatment 1.320%), 79%; in data set [2] (% treatment 0.083%), 13%. The “% decrease in biofilm as compared to growth control (negative indicates increased biofilm)” value in data set [2] (% treatment 0.165%) came out at 37%; in data set [2] (% treatment 0.330%) it was 44%; in data set [2] (% treatment 0.660%), 46%; in data set [2] (% treatment 1.320%) it was 41%. Besides, in the data set with S. mutans (ATCC #25175), the “effect on acid production of S. mutans (change of OD 588 / OD 427, pH), in words” value is recorded as “no or little change”.
`CCOC(C)=O` [Ethyl Acetate]: the “End pH” value with porcine esterase (0.2% (positive control), porcine esterase, end of the assay (90 minutes)) came to 5.00. Moreover, the “Start pH” value with porcine esterase (0.2% (positive control), porcine esterase, start of assay) stood at 8.30.
Turning to `N=C(N)NCCC[C@H](N)C(=O)O` [L-Arginine], the “% decrease in biofilm as compared to growth control (negative indicates increased biofilm)” value in data set [1] (% treatment 0.070%) is recorded as −28%; in data set [1] (% treatment 0.140%) it was −20%; in data set [1] (% treatment 0.280%), −24%; in data set [1] (% treatment 0.560%), −22%; in data set [1] (% treatment 1.120%), 49%; in data set [2] (% treatment 0.070%) it was −40%. The “% decrease in biofilm as compared to growth control (negative indicates increased biofilm)” value is −18% in data set [2] (% treatment 0.140%), −59% in data set [2] (% treatment 0.280%), −53% in data set [2] (% treatment 0.560%) and −29% in data set [2] (% treatment 1.120%). The “effect on acid production of S. mutans (change of OD 588 / OD 427, pH), in words” value with S. mutans (ATCC #25175) was “no acid inhibiting effects”.
Turning to `O=C([O-])CN(CCN(CC(=O)[O-])CC(=O)[O-])CC(=O)[O-].[Ca+2].[Na+].[Na+]` [Trilon Ca], the “Disruption of 48 hour saliva biofilms after treatment for 5 minutes: Chelate control” value is reported as −1 with 48 hour saliva biofilms (Chlorhexidine / Xylitol-EDTA polymer series) and −10 in the data set with 48 hour saliva biofilms (e-polylysine / Arginine-Xylitol-Succinic Acid Terpolymer series).
On to `OC[C@@H](O)[C@H](O)[C@@H](O)CO` [Xylitol], for which the “percent reduction from the untreated control” value in the data set with S. mutans 25175 biofilm is on record as −1%; in data set [3], 17%. In addition, the “effect on acid production of S. mutans (change of OD 588 / OD 427, pH), in words” value in the data set with S. mutans (ATCC #25175) was “acid inhibition at all concentrations tested”.
For the compound `O=C(O)CC(O)(CC(=O)O)C(=O)O` [citric acid], the “effect on acid production of S. mutans (change of OD 588 / OD 427, pH), in words” value in the data set with S. mutans (ATCC #25175) is recorded as “no or little change”.
Still for that read-out and setting: as for `O=C(O)CCC(=O)O` [succinic acid], the entry is “no or little change”.
Consider Xylitol-Carboxymethyl Cellulose Polymer, for which, in the data set with porcine esterase, the “End pH” value was found to be 7.47; the “Start pH” value came out at 8.37; the “degradation by esterase, in words” value is on record as “degraded by the esterase”.
